The values below come from patent publication US20070161581A1, “Novel aminoglycoside antibiotics effective against methicillin resistant staphylococcus auerus (mrsas)” (priority 2004, published 2007).

One experiment relates to MRSA-LR. In words: Antimicrobial activity, MIC by agar plate dilution method against MRSA-LR. In kind it is cell-based, methicillin resistant Staphylococcus aureus. The following applies: Staphylococcus aureus, read-out: minimal inhibitory concentration (MIC) against MRSA-LR. The method, then: (§1) The minimal inhibitory concentration (MIC, μg/mL) against MRSAs (MRSA-HR and MRSA-LR) were measured for typical comounds of novel aminoglycoside antibiotic derivatives described in the Examples (Example 1, Example 2, Example 9, Example 13, Example 18, Example 24, Example 44, Example 45, Example 48, Example 49, Example 51, Example 52, Example 53, Example 54, and Example 76) by an agar plate dilution method based on the method based on the JAPANESE SOCIETY OF CHEMOTHERAPY. As a result, the MIC value of the compounds described in the Examples was not more than 8 against MRSA-HR and not more than 4 against MRSA-LR. The same test was carried out for arbekacin described in Japanese Patent Laid-Open No. 164696/1980.

A further experiment concerns P. aeruginosa PAO1. Briefly: Antimicrobial activity, MIC against P. aeruginosa PAO1. The experiment is classed as cell-based. The following applies: Pseudomonas aeruginosa, read-out: minimal inhibitory concentration (MIC) against P. aeruginosa PAO1.
The next experiment deals with MRSA-HR. In words: Antimicrobial activity, MIC by agar plate dilution method against MRSA-HR. The experiment is classed as cell-based, methicillin resistant Staphylococcus aureus. The settings on record: Staphylococcus aureus, read-out: minimal inhibitory concentration (MIC) against MRSA-HR. The method, then:
as §1

In brackets after ≈: the same amount, converted by molar mass. A value given as a limit tells only on which side of the number the result lay.

As to `NCC[C@H](O)C(=O)NC1C[C@H](N)C(O[C@H]2OC(CN)CCC2N)C(O)[C@H]1O[C@H]1OC(CO)[C@@H](O)C(N)C1O` (some centres unmarked) [Example 13, 5-Epiarbekacin], the MIC in the experiment with MRSA-LR was at most 4 µg/mL; with P. aeruginosa PAO1 it was at most 4 µg/mL; with MRSA-HR, at most 8 µg/mL.

Turning to `NCC[C@H](O)C(=O)NC1C[C@H](N)C(O[C@H]2OC(CN)C=CC2N)C(F)[C@H]1O[C@H]1OC(CO)[C@@H](O)C(N)C1O` (some centres unmarked) [Example 45, 5-Deoxy-3′,4′-didehydro-5-epifluoroarbekacin], the values for the MIC in the experiment with MRSA-LR, in the experiment with P. aeruginosa PAO1 and in the experiment with MRSA-HR were at most 4 µg/mL, at most 4 µg/mL and at most 8 µg/mL, respectively.

Regarding `NCC[C@H](O)C(=O)NC1C[C@H](N)C(O[C@H]2OC(CN)C=CC2N)C(F)[C@H]1O[C@H]1OC(CO)[C@H](O)C(N)C1O` (stereo partly drawn) [Example 52, 5-Deoxy-3′,4′-didehydro-4″-epi-5-epifluoroarbekacin], the MIC with MRSA-LR was at most 4 µg/mL; in the experiment with P. aeruginosa PAO1 it was at most 4 µg/mL; with MRSA-HR, at most 8 µg/mL.

As for `NCC[C@H](O)C(=O)N[C@@H]1C[C@H](N)[C@@H](O[C@H]2O[C@H](CN)CC[C@H]2N)[C@H](O)[C@H]1O[C@H]1O[C@H](CO)[C@@H](O)[C@H](N)[C@H]1O` [arbekacin, (S)-1-N-(4-amino-2-hydroxybutyroyl)dibekacin, reference compound], the values for the MIC in the experiment on MRSA-LR and in the experiment with MRSA-HR were 16 µg/mL (≈ 29 µM) and 64 µg/mL (≈ 116 µM), respectively.

For the compound `NCC[C@H](O)C(=O)NC1C[C@H](N)C(O[C@H]2OC(CN)C=CC2N)C(O)[C@H]1O[C@H]1OC(CO)[C@@H](O)C(N)C1O` (some centres unmarked) [Example 44, 3′,4′-didehydro-5-epiarbekacin], the MIC in the experiment with MRSA-LR was at most 4 µg/mL; with P. aeruginosa PAO1 it was at most 4 µg/mL; in the experiment on MRSA-HR, at most 8 µg/mL.

As to `NCC[C@H](O)C(=O)NC1C[C@H](N)C(O[C@H]2OC(CN)CCC2N)C(F)[C@H]1O[C@H]1OC(CO)[C@H](O)C(N)C1O` (stereo partly drawn) [Example 2, 5-Deoxy-4″-epi-5-epifluoroarbekacin], the MIC in the experiment with MRSA-LR was at most 4 µg/mL; in the experiment on P. aeruginosa PAO1, at most 4 µg/mL; with MRSA-HR, at most 8 µg/mL.

`NCC[C@H](O)C(=O)NC1C[C@H](N)C(O[C@H]2OC(CN)CCC2N)C(O)[C@H]1O[C@H]1OC(CO)[C@H](O)C(N)C1O` (some centres unmarked) [Example 1, 5,4″-diepiarbekacin]: the MIC in the experiment with MRSA-LR was at most 4 µg/mL; in the experiment on P. aeruginosa PAO1 it was at most 4 µg/mL; in the experiment on MRSA-HR, at most 8 µg/mL.

As for `NCC[C@H](O)C(=O)NC1C[C@H](N)C(O[C@H]2OC(CN)C=CC2N)C(N)[C@H]1O[C@H]1OC(CO)[C@H](O)C(N)C1O` (stereo partly drawn) [Example 53, 5-Deoxy-3′,4′-didehydro-4″-epi-5-epiaminoarbekacin], the MIC in the experiment on MRSA-LR was at most 4 µg/mL; in the experiment with P. aeruginosa PAO1 it was at most 4 µg/mL; in the experiment with MRSA-HR, at most 8 µg/mL.

As to `NCC[C@H](O)C(=O)NC1C[C@H](N)C(O[C@H]2OC(CN)CCC2N)C(N)[C@H]1O[C@H]1OC(CO)[C@@H](O)C(N)C1O` (some centres unmarked) [Example 18, 5-Deoxy-5-epiaminoarbekacin], the MIC is at most 4 µg/mL with MRSA-LR, at most 4 µg/mL in the experiment on P. aeruginosa PAO1 and at most 8 µg/mL in the experiment on MRSA-HR.

For the compound `NCC[C@H](O)C(=O)NC1C[C@H](N)C(O[C@H]2OC(CN)CCC2N)C(O)[C@H]1O[C@H]1OC(C(O)CN)[C@@H](O)C(N)C1O` (some centres unmarked) [Example 76, 6″-Aminomethylarbekacin], the MIC with MRSA-LR was at most 4 µg/mL; in the experiment on P. aeruginosa PAO1, at most 4 µg/mL; in the experiment on MRSA-HR, at most 8 µg/mL.

As to `NCCNC1C(O[C@H]2OC(CN)CCC2N)[C@@H](N)CC(NC(=O)[C@@H](O)CCN)[C@@H]1O[C@H]1OC(CO)[C@@H](O)C(N)C1O` (stereo partly drawn) [Example 24, 5-Deoxy-5-epi(2-aminoethyl)aminoarbekacin], the MIC in the experiment on MRSA-LR is at most 4 µg/mL; with P. aeruginosa PAO1, at most 4 µg/mL; in the experiment on MRSA-HR, at most 8 µg/mL.

For `NCC[C@H](O)C(=O)NC1C[C@H](N)C(O[C@H]2OC(CN)C=CC2N)C(N)[C@H]1O[C@H]1OC(CO)[C@@H](O)C(N)C1O` (some centres unmarked) [Example 48, 5-Deoxy-3′,4′-didehydro-5-epiaminoarbekacin], the results for the MIC in the experiment with MRSA-LR, in the experiment with P. aeruginosa PAO1 and in the experiment on MRSA-HR were at most 4 µg/mL, at most 4 µg/mL and at most 8 µg/mL, respectively.

For the compound `NCC1CCC(N)[C@@H](OC2C(O)[C@@H](O[C@H]3OC(CO)[C@H](O)C(N)C3O)C(NC(=O)[C@@H](O)CN)C[C@@H]2N)O1` (stereo partly drawn) [Example 9, 1-N-[(S)-(3-amino-2-hydroxypropanoyl)]-5,4″-diepidibekacin], the MIC in the experiment on MRSA-LR is at most 4 µg/mL; in the experiment with P. aeruginosa PAO1, at most 4 µg/mL; in the experiment on MRSA-HR, at most 8 µg/mL.

`NCC[C@H](O)C(=O)NC1C[C@H](N)C(O[C@H]2OC(CN)C=CC2N)C(O)[C@H]1O[C@H]1OC(CO)[C@H](O)C(N)C1O` (some centres unmarked) [Example 51, 3′,4′-Didehydro-5,4″-diepiarbekacin]: the MIC in the experiment with MRSA-LR was at most 4 µg/mL; with P. aeruginosa PAO1, at most 4 µg/mL; with MRSA-HR it was at most 8 µg/mL.

`NCC[C@H](O)C(=O)NC1C[C@H](N)C(O[C@H]2OC(CN)C=CC2N)C(O)[C@H]1O[C@H]1OC(CO)CC(N)C1O` (some centres unmarked) [Example 54, 4″-Deoxy-3′,4′-didehydro-5-epiarbekacin]: the values for the MIC with MRSA-LR, in the experiment on P. aeruginosa PAO1 and with MRSA-HR were at most 4 µg/mL, at most 4 µg/mL and at most 8 µg/mL, respectively.
